{
  "source": "patent US20190046446A1",
  "about": "“APO-E MODIFIED LIPID NANOPARTICLES FOR DRUG DELIVERY TO TARGETED TISSUES AND THERAPEUTIC METHODS” (Eriochem USA, LLC, priority 2016, published 2019)",
  "key": {"[1]": {"conditions": "in vivo; cited from earlier work"}, "New Zealand rabbits [2]": {"tested_on": "New Zealand rabbits", "assay": "Blood counts (hemogram) in rabbits;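 further: compound given into the marginal ear vein under ketamine-xylazine-acepromazine anesthesia, blood drawn from the ear central artery after sedation, seven samplings from one day before to day 20 after first dose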", "conditions": "iv, 3 cycles every 7 days", "method": "The intravenous administration was performed in the marginal ear vein and previously rabbits underwent anesthesia intramuscular injection by a combination of Ketamine-Xylazine-Acepromazine (2.4 mg/kg acepromazine, 48 mg/kg Ketamine and 5 mg/kg xylazine)\nBlood samples were taken from the central artery of the ear, after sedation. A total of 7 samples were taken for each rabbit, and samples were taken a day before the first doses (−1), and on days 1, 6, 8, 13, 15 and 20 after the first dose."}, "New Zealand rabbits [3]": {"tested_on": "New Zealand rabbits", "assay": "Hepatic toxicity (GGT and GOT determination)", "format": "in vivo", "conditions": "iv, DCX 2.5 mg/kg or equivalent, 24 hours after inoculation", "procedure": "The experiment was carried out using New Zealand rabbits kept in facilities under controlled environmental conditions (temperature of 22° C.+3° C.; 12-hour light/dark cycle) and with free access to food and water. Acclimatization was performed for a minimum of 10 days prior to the start of the experiment. Each animal weighted approximately 2.8 kg and was distributed into a group of 5 animals each.\nFormulations were administered intravenously (in marginal ear vein) into rabbits that had previously been intravenously injected with a combination of Ketamine-Xylazine-Acepromazine. Amounts of Gamma glutamil transaminase (GGT) and glutamic-oxaloacetic transaminase (GOT) were determined in plasma of the rabbits 24 hours after inoculation with the formulation. The results of each sample were statistically analyzed with ANOVA and Duncan Test using SPSS 11.0."}, "[4]": {"assay": "In vitro drug release by dialysis against human plasma", "format": "in vitro ADME", "conditions": "dialysis against 10% human plasma, 37° C., up to 72 hours", "procedure": "Drug release kinetics were evaluated in vitro by comparing solutions containing:\nThe respective solution samples were placed in 12 KDa dialysis bags and dialyzed against a 10% V/V solution of human plasma for 72 hours at 37° C. in an orbital shaker with constant agitation at 60 rpm. Assays were then performed in triplicate, with samples taken from each solution at 0, 1, 2, 3, 6, 9, 24, 48, and 72 hours after dialysis initiation. […] The recovered organic phase was dried in a rotary evaporator, and the obtained dry material was resuspended in acetonitrile for further HPLC analysis."}},
  "data": [
    {"smiles": "CC(=O)O[C@@]12CO[C@@H]1C[C@H](O)[C@@]1(C)C(=O)[C@H](O)C3=C(C)[C@@H](OC(=O)[C@H](O)[C@@H](NC(=O)OC(C)(C)C)c4ccccc4)C[C@@](O)([C@@H](OC(=O)c4ccccc4)[C@H]21)C3(C)C", "note": "[TAXOTERE, Docetaxel]", "values": [
      {"measurement": "incidence of reactions of unpredictable acute toxicity", "setting": "[1]", "value": "5-60%"},
      {"measurement": "Hematocrit", "setting": "New Zealand rabbits [2]; Sample 1 (day -1)", "value": 40, "unit": "%"},
      {"measurement": "MCH", "setting": "New Zealand rabbits [2]; Sample 1 (day -1)", "value": 20, "unit": "pg"},
      {"measurement": "MCHC", "setting": "New Zealand rabbits [2]; Sample 1 (day -1)", "value": 28, "unit": "g/dL"},
      {"measurement": "MCV", "setting": "New Zealand rabbits [2]; Sample 1 (day -1)", "value": 71, "unit": "fL"},
      {"measurement": "Red Cells", "setting": "New Zealand rabbits [2]; Sample 1 (day -1)", "value": "5.7 × 10^6/mm^3"},
      {"measurement": "White Blood Cells", "setting": "New Zealand rabbits [2]; Sample 1 (day -1)", "value": "6720 /mm"},
      {"measurement": "Hematocrit", "setting": "New Zealand rabbits [2]; Sample 2 (day 1)", "value": 37, "unit": "%"},
      {"measurement": "MCH", "setting": "New Zealand rabbits [2]; Sample 2 (day 1)", "value": 20, "unit": "pg"},
      {"measurement": "MCHC", "setting": "New Zealand rabbits [2]; Sample 2 (day 1)", "value": 28, "unit": "g/dL"},
      {"measurement": "MCV", "setting": "New Zealand rabbits [2]; Sample 2 (day 1)", "value": 71, "unit": "fL"},
      {"measurement": "Red Cells", "setting": "New Zealand rabbits [2]; Sample 2 (day 1)", "value": "5.2 × 10^6/mm^3"},
      {"measurement": "White Blood Cells", "setting": "New Zealand rabbits [2]; Sample 2 (day 1)", "value": "6175 /mm"},
      {"measurement": "Hematocrit", "setting": "New Zealand rabbits [2]; Sample 3 (day 6)", "value": 37, "unit": "%"},
      {"measurement": "MCH", "setting": "New Zealand rabbits [2]; Sample 3 (day 6)", "value": 20, "unit": "pg"},
      {"measurement": "MCHC", "setting": "New Zealand rabbits [2]; Sample 3 (day 6)", "value": 28, "unit": "g/dL"},
      {"measurement": "MCV", "setting": "New Zealand rabbits [2]; Sample 3 (day 6)", "value": 70, "unit": "fL"},
      {"measurement": "Red Cells", "setting": "New Zealand rabbits [2]; Sample 3 (day 6)", "value": "5.2 × 10^6/mm^3"},
      {"measurement": "White Blood Cells", "setting": "New Zealand rabbits [2]; Sample 3 (day 6)", "value": "3800 /mm"},
      {"measurement": "Hematocrit", "setting": "New Zealand rabbits [2]; Sample 4 (day 8)", "value": 39, "unit": "%"},
      {"measurement": "MCH", "setting": "New Zealand rabbits [2]; Sample 4 (day 8)", "value": 19, "unit": "pg"},
      {"measurement": "MCHC", "setting": "New Zealand rabbits [2]; Sample 4 (day 8)", "value": 25, "unit": "g/dL"},
      {"measurement": "MCV", "setting": "New Zealand rabbits [2]; Sample 4 (day 8)", "value": 69, "unit": "fL"},
      {"measurement": "Red Cells", "setting": "New Zealand rabbits [2]; Sample 4 (day 8)", "value": "5.6 × 10^6/mm^3"},
      {"measurement": "White Blood Cells", "setting": "New Zealand rabbits [2]; Sample 4 (day 8)", "value": "3500 /mm"},
      {"measurement": "Hematocrit", "setting": "New Zealand rabbits [2]; Sample 5 (day 13)", "value": 24, "unit": "%"},
      {"measurement": "MCH", "setting": "New Zealand rabbits [2]; Sample 5 (day 13)", "value": 19, "unit": "pg"},
      {"measurement": "MCHC", "setting": "New Zealand rabbits [2]; Sample 5 (day 13)", "value": 28, "unit": "g/dL"},
      {"measurement": "MCV", "setting": "New Zealand rabbits [2]; Sample 5 (day 13)", "value": 69, "unit": "fL"},
      {"measurement": "Red Cells", "setting": "New Zealand rabbits [2]; Sample 5 (day 13)", "value": "3.9 × 10^6/mm^3"},
      {"measurement": "White Blood Cells", "setting": "New Zealand rabbits [2]; Sample 5 (day 13)", "value": "4000 /mm"},
      {"measurement": "Hematocrit", "setting": "New Zealand rabbits [2]; Sample 6 (day 15)", "value": 31, "unit": "%"},
      {"measurement": "MCH", "setting": "New Zealand rabbits [2]; Sample 6 (day 15)", "value": 20, "unit": "pg"},
      {"measurement": "MCHC", "setting": "New Zealand rabbits [2]; Sample 6 (day 15)", "value": 29, "unit": "g/dL"},
      {"measurement": "MCV", "setting": "New Zealand rabbits [2]; Sample 6 (day 15)", "value": 70, "unit": "fL"},
      {"measurement": "Red Cells", "setting": "New Zealand rabbits [2]; Sample 6 (day 15)", "value": "4.4 × 10^6/mm^3"},
      {"measurement": "White Blood Cells", "setting": "New Zealand rabbits [2]; Sample 6 (day 15)", "value": "5500 /mm"},
      {"measurement": "Hematocrit", "setting": "New Zealand rabbits [2]; Sample 7 (day 20)", "value": 19, "unit": "%"},
      {"measurement": "MCH", "setting": "New Zealand rabbits [2]; Sample 7 (day 20)", "value": 20, "unit": "pg"},
      {"measurement": "MCHC", "setting": "New Zealand rabbits [2]; Sample 7 (day 20)", "value": 44, "unit": "g/dL"},
      {"measurement": "MCV", "setting": "New Zealand rabbits [2]; Sample 7 (day 20)", "value": 45, "unit": "fL"},
      {"measurement": "Red Cells", "setting": "New Zealand rabbits [2]; Sample 7 (day 20)", "value": "4.2 × 10^6/mm^3"},
      {"measurement": "White Blood Cells", "setting": "New Zealand rabbits [2]; Sample 7 (day 20)", "value": "2900 /mm"},
      {"measurement": "GGT concentration in plasma", "setting": "New Zealand rabbits [3]", "value": "No significant differences"},
      {"measurement": "GOT concentration in plasma", "setting": "New Zealand rabbits [3]", "value": "O significant differences"},
      {"measurement": "Docetaxel release, comparison between solutions", "setting": "[4]", "value": "released more decetaxel than the lipid nanoparticles"}
    ]}
  ]
}
